From article PMC3104124 (Journal of molecular biology, 2011)

Target: T1, Ste2p (wild type, C-terminally truncated) (Saccharomyces cerevisiae, UniProt D6VTK4)
T1 sequence (D6VTK4 1-304): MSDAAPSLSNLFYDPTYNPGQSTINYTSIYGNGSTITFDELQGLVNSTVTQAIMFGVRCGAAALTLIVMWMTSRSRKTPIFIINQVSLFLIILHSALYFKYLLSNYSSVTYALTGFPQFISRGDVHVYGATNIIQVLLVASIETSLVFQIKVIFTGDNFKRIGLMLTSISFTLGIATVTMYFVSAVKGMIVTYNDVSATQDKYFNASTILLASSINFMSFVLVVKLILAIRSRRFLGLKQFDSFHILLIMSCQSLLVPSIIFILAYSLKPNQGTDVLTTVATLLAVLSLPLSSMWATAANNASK
Assay: Fluorescent ligand binding
Conditions: FL1/FL2 emission of the ligand labeled with NBD at Lys7, bound to normal Ste2p; normalised to [Lys^7(NBD),Nle^12]α-factor

**Q.** How did the “Relative Bmax Ratio” value turn out when [des-Trp^1,Ala^3,Nle^12]α-factor was run?
**A.** The value was 0.49 ± 0.03.

**Q.** Which “Relative Bmax Ratio” value does the source give for [desTrp^1,desHis^2,Nle^12]α-factor here?
**A.** Its value is 0.42 ± 0.05.
